Data as given in the NIST ThermoML archive (doi:10.1021/acs.jced.7b00494).
Numbers after ± are expanded uncertainties.

Experiment: mn = molality of the nth substance listed, in mol/kg
Settings: 99.6 kPa, Liquid; for kinematic viscosity: Capillary tube (Ostwald / Ubbelohde) method; for mass density: Vibrating tube method

Q: Which results are given for `CNC(C)=O` [N-methylacetamide] + [Ca+2].[Cl-].[Cl-]?
A: kinematic viscosity (308.15 K, m2 = 0): 3.79e-06 ± 4.6e-08 m2/s; kinematic viscosity (308.15 K, m2 = 0.00398): 3.81e-06 ± 4.7e-08 m2/s; kinematic viscosity (308.15 K, m2 = 0.01042): 3.83e-06 ± 4.7e-08 m2/s; kinematic viscosity (308.15 K, m2 = 0.04232): 4.04e-06 ± 5e-08 m2/s; kinematic viscosity (308.15 K, m2 = 0.05605): 4.13e-06 ± 5.1e-08 m2/s; kinematic viscosity (308.15 K, m2 = 0.08536): 4.34e-06 ± 5.3e-08 m2/s; kinematic viscosity (308.15 K, m2 = 0.1022): 4.47e-06 ± 5.5e-08 m2/s; kinematic viscosity (308.15 K, m2 = 0.1314): 4.7e-06 ± 5.8e-08 m2/s; kinematic viscosity (308.15 K, m2 = 0.1539): 4.89e-06 ± 6e-08 m2/s; kinematic viscosity (308.15 K, m2 = 0.1613): 4.95e-06 ± 6.1e-08 m2/s; kinematic viscosity (308.15 K, m2 = 0.1719): 5.03e-06 ± 6.2e-08 m2/s; kinematic viscosity (308.15 K, m2 = 0.1998): 5.26e-06 ± 6.4e-08 m2/s; kinematic viscosity (308.15 K, m2 = 0.2219): 5.46e-06 ± 6.7e-08 m2/s; kinematic viscosity (308.15 K, m2 = 0.2578): 5.79e-06 ± 7.1e-08 m2/s; kinematic viscosity (308.15 K, m2 = 0.3546): 6.92e-06 ± 8.4e-08 m2/s; mass density (308.15 K, m2 = 0): 945.85 ± 1.9 kg/m3; mass density (308.15 K, m2 = 0.00398): 946.1 ± 1.9 kg/m3; mass density (308.15 K, m2 = 0.01042): 946.61 ± 1.9 kg/m3; mass density (308.15 K, m2 = 0.04232): 948.77 ± 1.9 kg/m3; mass density (308.15 K, m2 = 0.05605): 949.67 ± 1.9 kg/m3; mass density (308.15 K, m2 = 0.08536): 951.77 ± 1.9 kg/m3; mass density (308.15 K, m2 = 0.1022): 953.01 ± 1.9 kg/m3; mass density (308.15 K, m2 = 0.1314): 954.97 ± 1.9 kg/m3; mass density (308.15 K, m2 = 0.1539): 956.57 ± 1.9 kg/m3; mass density (308.15 K, m2 = 0.1613): 957.09 ± 1.9 kg/m3; mass density (308.15 K, m2 = 0.1719): 957.84 ± 1.9 kg/m3; mass density (308.15 K, m2 = 0.1998): 959.8 ± 1.9 kg/m3; mass density (308.15 K, m2 = 0.2219): 961.27 ± 1.9 kg/m3; mass density (308.15 K, m2 = 0.2578): 964 ± 1.9 kg/m3; mass density (308.15 K, m2 = 0.3546): 970.82 ± 1.9 kg/m3; kinematic viscosity (313.15 K, m2 = 0): 3.35e-06 ± 4.1e-08 m2/s; kinematic viscosity (313.15 K, m2 = 0.00398): 3.38e-06 ± 4.2e-08 m2/s; kinematic viscosity (313.15 K, m2 = 0.01042): 3.41e-06 ± 4.2e-08 m2/s; kinematic viscosity (313.15 K, m2 = 0.04232): 3.59e-06 ± 4.4e-08 m2/s; kinematic viscosity (313.15 K, m2 = 0.05605): 3.67e-06 ± 4.5e-08 m2/s; kinematic viscosity (313.15 K, m2 = 0.08536): 3.83e-06 ± 4.7e-08 m2/s; kinematic viscosity (313.15 K, m2 = 0.1022): 3.95e-06 ± 4.8e-08 m2/s; kinematic viscosity (313.15 K, m2 = 0.1314): 4.15e-06 ± 5.1e-08 m2/s; kinematic viscosity (313.15 K, m2 = 0.1539): 4.31e-06 ± 5.3e-08 m2/s; kinematic viscosity (313.15 K, m2 = 0.1613): 4.35e-06 ± 5.3e-08 m2/s; kinematic viscosity (313.15 K, m2 = 0.1719): 4.42e-06 ± 5.4e-08 m2/s; kinematic viscosity (313.15 K, m2 = 0.1998): 4.63e-06 ± 5.7e-08 m2/s; kinematic viscosity (313.15 K, m2 = 0.2219): 4.8e-06 ± 5.9e-08 m2/s; kinematic viscosity (313.15 K, m2 = 0.2578): 5.1e-06 ± 6.2e-08 m2/s; kinematic viscosity (313.15 K, m2 = 0.3546): 6.01e-06 ± 7.3e-08 m2/s; mass density (313.15 K, m2 = 0): 941.63 ± 1.9 kg/m3; mass density (313.15 K, m2 = 0.00398): 941.91 ± 1.9 kg/m3; mass density (313.15 K, m2 = 0.01042): 942.38 ± 1.9 kg/m3; mass density (313.15 K, m2 = 0.04232): 944.56 ± 1.9 kg/m3; mass density (313.15 K, m2 = 0.05605): 945.49 ± 1.9 kg/m3; mass density (313.15 K, m2 = 0.08536): 947.59 ± 1.9 kg/m3; mass density (313.15 K, m2 = 0.1022): 948.87 ± 1.9 kg/m3; mass density (313.15 K, m2 = 0.1314): 950.79 ± 1.9 kg/m3; mass density (313.15 K, m2 = 0.1539): 952.41 ± 1.9 kg/m3; mass density (313.15 K, m2 = 0.1613): 952.96 ± 1.9 kg/m3; mass density (313.15 K, m2 = 0.1719): 953.69 ± 1.9 kg/m3; mass density (313.15 K, m2 = 0.1998): 955.68 ± 1.9 kg/m3; mass density (313.15 K, m2 = 0.2219): 957.26 ± 1.9 kg/m3; mass density (313.15 K, m2 = 0.2578): 959.75 ± 1.9 kg/m3; mass density (313.15 K, m2 = 0.3546): 966.61 ± 1.9 kg/m3; kinematic viscosity (318.15 K, m2 = 0): 2.99e-06 ± 3.7e-08 m2/s; kinematic viscosity (318.15 K, m2 = 0.00398): 3.02e-06 ± 3.7e-08 m2/s; kinematic viscosity (318.15 K, m2 = 0.01042): 3.04e-06 ± 3.7e-08 m2/s; kinematic viscosity (318.15 K, m2 = 0.04232): 3.19e-06 ± 3.9e-08 m2/s; kinematic viscosity (318.15 K, m2 = 0.05605): 3.25e-06 ± 4e-08 m2/s; kinematic viscosity (318.15 K, m2 = 0.08536): 3.4e-06 ± 4.2e-08 m2/s; kinematic viscosity (318.15 K, m2 = 0.1022): 3.49e-06 ± 4.3e-08 m2/s; kinematic viscosity (318.15 K, m2 = 0.1314): 3.67e-06 ± 4.5e-08 m2/s; kinematic viscosity (318.15 K, m2 = 0.1539): 3.8e-06 ± 4.7e-08 m2/s; kinematic viscosity (318.15 K, m2 = 0.1613): 3.85e-06 ± 4.7e-08 m2/s; kinematic viscosity (318.15 K, m2 = 0.1719): 3.9e-06 ± 4.8e-08 m2/s; kinematic viscosity (318.15 K, m2 = 0.1998): 4.08e-06 ± 5e-08 m2/s; kinematic viscosity (318.15 K, m2 = 0.2219): 4.24e-06 ± 5.2e-08 m2/s; kinematic viscosity (318.15 K, m2 = 0.2578): 4.5e-06 ± 5.5e-08 m2/s; kinematic viscosity (318.15 K, m2 = 0.3546): 5.32e-06 ± 6.5e-08 m2/s
